# Assay results as given in patent US11564955B2, “Composition including, as active ingredient, strain having ability to produce formic acid for preventing or treating obesity or metabolic syndromes caused by obesity” (KOREA FOOD RESEARCH INSTITUTE, priority 2016, dated 2023).
# Test system: high-fat diet-induced obesity animal models
# Details: oral formate vs high-fat diet control group
# Excerpt: In order to investigate whether formic acid actually has an anti-obesity effect, the present inventors orally administered formate into high-fat diet-induced obesity animal models. […] The patent application procedure of the above-described contents is under way, separately from the present disclosure.
smiles,measurement,value
O=CO [formate],blood cholesterol content,significantly reduced
same,blood triglyceride content,significantly reduced
same,body weight increase,inhibited
same,fat cell size,decreased
same,kidney fat weight value,lowered
